From ChEMBL document CHEMBL1159033, “Inhibition of angiotensin-I-converting enzyme by tetrahydroxyxanthones isolated from Tripterospermum lanceolatum” (J Nat Prod, 1992) come the findings set out here.

In test [1] the target is T1, Angiotensin-converting enzyme (Homo sapiens, UniProt P12821). In words: Inhibition of ACE by Lineweaver-Burke plot.
In test [2] the target is T1, Angiotensin-converting enzyme. In words: Inhibition of ACE at 100 uM.
For test [3] the target is unchanged. The experiment in a line: Inhibition of ACE at 200 uM.
The target is the same in test [4]. In words: Inhibition of ACE at 400 uM.
Test [5] shares this target. In words: Inhibition of ACE.
Test [6] relates to Rattus norvegicus. In words: Antihypertensive activity in spontaneously hypertensive rat assessed as inhibition of angiotensin 1-induced vasopressive response at 40 mg/kg, iv after 10 mins. The format is functional.
The subject of test [7] is Rattus norvegicus. In words: Antihypertensive activity in spontaneously hypertensive rat assessed as inhibition of angiotensin 1-induced vasopressive response at 80 mg/kg, iv after 20 mins. The format is functional.
Test [8] relates to Rattus norvegicus. In words: Antihypertensive activity in spontaneously hypertensive rat assessed as inhibition of angiotensin 1-induced vasopressive response at 20 mg/kg, iv after 30 mins. The format is functional. Particulars: 0.5 h.
Test [9] has as its system Rattus norvegicus. In words: Antihypertensive activity in spontaneously hypertensive rat assessed as inhibition of angiotensin 1-induced vasopressive response at 20 mg/kg, iv after 20 mins. The format is functional.
The test system of test [10] is Rattus norvegicus. The experiment in a line: Antihypertensive activity in spontaneously hypertensive rat assessed as inhibition of angiotensin 1-induced vasopressive response at 80 mg/kg, iv after 10 mins. The format is functional.
Test [11] has as its system Rattus norvegicus. The experiment in a line: Antihypertensive activity in spontaneously hypertensive rat assessed as inhibition of angiotensin 1-induced vasopressive response at 20 mg/kg, iv after 10 mins. The format is functional.
Test [12] relates to Rattus norvegicus. In words: Antihypertensive activity in spontaneously hypertensive rat assessed as inhibition of angiotensin 1-induced vasopressive response at 80 mg/kg, iv after 30 mins. To be noted: 0.5 h. The format is functional.
For test [13], the system named is Rattus norvegicus. In words: Antihypertensive activity in spontaneously hypertensive rat assessed as inhibition of angiotensin 1-induced vasopressive response at 40 mg/kg, iv after 30 mins. Particulars: 0.5 h. The format is functional.
Test [14] concerns Rattus norvegicus. The experiment in a line: Antihypertensive activity in spontaneously hypertensive rat assessed as inhibition of angiotensin 1-induced vasopressive response at 40 mg/kg, iv after 20 mins. The format is functional.
In test [15] the test system is Rattus norvegicus. The experiment in a line: Antihypertensive activity in spontaneously hypertensive rat assessed as inhibition of angiotensin 1-induced vasopressive response at 0.4 mg/kg, iv after 20 mins. The format is functional.
In test [16] the test system is Rattus norvegicus. In words: Antihypertensive activity in spontaneously hypertensive rat assessed as inhibition of angiotensin 1-induced vasopressive response at 0.4 mg/kg, iv after 30 mins. Particulars: 0.5 h. The format is functional.
Test [17] deals with Rattus norvegicus. The experiment in a line: Antihypertensive activity in spontaneously hypertensive rat assessed as inhibition of angiotensin 1-induced vasopressive response at 0.04 mg/kg, iv after 30 mins. The format is functional. Particulars: 0.5 h.
Test [18] concerns Rattus norvegicus. In words: Antihypertensive activity in spontaneously hypertensive rat assessed as inhibition of angiotensin 1-induced vasopressive response at 0.04 mg/kg, iv after 10 mins. The format is functional.
For test [19], the system named is Rattus norvegicus. The experiment in a line: Antihypertensive activity in spontaneously hypertensive rat assessed as inhibition of angiotensin 1-induced vasopressive response at 0.04 mg/kg, iv after 20 mins. The format is functional.
Test [20] has as its system Rattus norvegicus. The experiment in a line: Antihypertensive activity in spontaneously hypertensive rat assessed as inhibition of angiotensin 1-induced vasopressive response at 0.4 mg/kg, iv after 10 mins. The format is functional.

T1 sequence (P12821 whole entry): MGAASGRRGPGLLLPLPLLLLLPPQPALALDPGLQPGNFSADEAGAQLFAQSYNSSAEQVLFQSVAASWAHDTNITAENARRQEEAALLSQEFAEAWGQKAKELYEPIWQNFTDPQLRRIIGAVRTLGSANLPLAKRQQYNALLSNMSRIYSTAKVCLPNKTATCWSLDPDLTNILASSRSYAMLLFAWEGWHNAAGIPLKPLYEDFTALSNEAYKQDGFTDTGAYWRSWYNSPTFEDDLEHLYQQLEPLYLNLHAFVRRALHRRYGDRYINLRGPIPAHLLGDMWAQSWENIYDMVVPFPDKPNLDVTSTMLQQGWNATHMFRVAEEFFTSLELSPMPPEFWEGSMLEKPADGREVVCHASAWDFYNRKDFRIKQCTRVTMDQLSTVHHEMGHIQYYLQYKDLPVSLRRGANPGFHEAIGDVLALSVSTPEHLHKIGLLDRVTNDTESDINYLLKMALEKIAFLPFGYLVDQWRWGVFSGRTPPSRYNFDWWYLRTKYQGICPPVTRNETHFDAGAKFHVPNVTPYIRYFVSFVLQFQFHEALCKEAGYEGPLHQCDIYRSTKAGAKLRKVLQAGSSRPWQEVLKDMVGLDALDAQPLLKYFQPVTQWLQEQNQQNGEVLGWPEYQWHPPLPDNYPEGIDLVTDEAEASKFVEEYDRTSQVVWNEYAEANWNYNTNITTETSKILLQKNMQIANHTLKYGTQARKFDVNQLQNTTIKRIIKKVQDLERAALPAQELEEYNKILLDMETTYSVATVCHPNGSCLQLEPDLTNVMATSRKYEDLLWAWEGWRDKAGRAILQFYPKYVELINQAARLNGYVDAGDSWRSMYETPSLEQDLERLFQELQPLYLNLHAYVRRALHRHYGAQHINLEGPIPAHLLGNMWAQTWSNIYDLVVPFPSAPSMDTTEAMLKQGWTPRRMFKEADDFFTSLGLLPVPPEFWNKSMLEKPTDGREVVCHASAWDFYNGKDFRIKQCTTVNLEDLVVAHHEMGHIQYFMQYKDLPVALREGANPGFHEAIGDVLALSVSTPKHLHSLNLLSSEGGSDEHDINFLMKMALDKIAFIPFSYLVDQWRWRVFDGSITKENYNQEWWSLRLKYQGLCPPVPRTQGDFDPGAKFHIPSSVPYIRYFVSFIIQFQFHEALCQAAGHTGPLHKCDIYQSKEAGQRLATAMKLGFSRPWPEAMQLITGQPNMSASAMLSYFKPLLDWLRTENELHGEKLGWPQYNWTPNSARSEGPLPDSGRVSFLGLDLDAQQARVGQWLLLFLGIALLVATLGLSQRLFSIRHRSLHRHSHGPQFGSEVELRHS

The term Ki denotes a measure of affinity in units of concentration, obtained from inhibition or displacement. Low readings indicate tighter binding, high ones weaker binding. The term inhibition denotes the percentage by which the read-out fell short of the control. Broadly, the IC50 is the midpoint of a concentration-inhibition curve. Lower therefore signals greater potency. For the compound `O=c1c2cc(O)c(O)cc2oc2cc(O)cc(O)c12`, the Ki in test [1] is 250 µM. The figures for the inhibition in test [2], in test [3] and in test [4] were 15.5%, 23.5% and 40.3%, respectively. In test [5], this compound yielded an IC50 of 531 µM.

Usually inhibition in vivo stands for the share of the control response that was lost under treatment. For the compound `O=c1c2cc(O)c(O)cc2oc2c(O)c(O)ccc12`, the inhibition in vivo at 40 mg/kg is 47.8% with Rattus norvegicus [6], 10% in the test on Rattus norvegicus [13] and 30.8% with Rattus norvegicus [14]. Moreover, the results for the inhibition in vivo at 80 mg/kg in the test with Rattus norvegicus [7], in the test with Rattus norvegicus [10] and with Rattus norvegicus [12] were 32.5%, 52.7% and 13%, respectively. For the same compound, the figures for the inhibition in vivo at 20 mg/kg with Rattus norvegicus [8], in the test on Rattus norvegicus [9] and in the test on Rattus norvegicus [11] were 0%, 5.9% and 33.8%, respectively. In [1], this compound yielded a Ki of 14.2 µM. The inhibition was found to be 83.1% in test [2], 90% in test [3] and 95% in [4].

For the compound `C[C@H](CS)C(=O)N1CCC[C@H]1C(=O)O` [CAPTOPRIL], the inhibition in vivo at 0.4 mg/kg with Rattus norvegicus [15] came out at 66.6%; with Rattus norvegicus [16], 45.5%; in the test on Rattus norvegicus [20], 78.5%. The inhibition in vivo at 0.04 mg/kg worked out at 0% with Rattus norvegicus [17], 10% in the test with Rattus norvegicus [18] and 0% in the test with Rattus norvegicus [19].

On to `O=c1c2ccc(O)c(O)c2oc2cc(O)cc(O)c12`, for which the Ki in test [1] was determined as 34.2 µM. Also, the figures for the inhibition in test [2], in [3] and in test [4] were 56.4%, 67.7% and 75.3%, respectively. Also, in test [5], the IC50 was 69.2 µM.

As for `O=c1c2cc(O)c(O)cc2oc2cc(O)c(O)cc12`, the inhibition in [2] stood at 11.7%; in [3] it was 17.2%; in [4], 26.8%. The IC50 in [5] is > 769 µM.

For the compound `CC(=O)Oc1cc2oc3cc(OC(C)=O)c(OC(C)=O)cc3c(=O)c2cc1OC(C)=O`, in test [2], the inhibition is < 1%.

In [2], `CC(=O)Oc1ccc2c(=O)c3ccc(OC(C)=O)c(OC(C)=O)c3oc2c1OC(C)=O` came in with an inhibition of 7%.

For `CC(=O)Oc1cc(OC(C)=O)c2c(=O)c3ccc(OC(C)=O)c(OC(C)=O)c3oc2c1`, the inhibition in test [2] was < 1%.

Turning to `CC(=O)Oc1cc(OC(C)=O)c2c(=O)c3cc(OC(C)=O)c(OC(C)=O)cc3oc2c1`, the inhibition in [2] is < 1%.

Turning to `O=c1c2ccc(O)c(O)c2oc2c(O)c(O)ccc12`, the Ki in [1] was determined as 126 µM. The inhibition in [2] stood at 34.3%; in [3], 46.2%; in test [4] it was 55.5%. In test [5], this compound gave an IC50 of 239 µM.

Regarding `CC(=O)Oc1cc2oc3c(OC(C)=O)c(OC(C)=O)ccc3c(=O)c2cc1OC(C)=O`, the inhibition in test [2] amounted to 9.82%.
